Data reported in patent US20210251994A1, “INCREASING IMMUNE ACTIVITY THROUGH MODULATION OF POSTCELLULAR SIGNALING FACTORS” (FLAGSHIP PIONEERING INNOVATIONS V, INC., priority 2018, published 2021).
“Also recorded” adds a separate entry of the source.

Columns and labels:
NFKB [1] = experiment: NFKB reporter activity in THP1-Dual monocytes co-cultured with treated HT1080 cells; type: cell-based, human; settings: HT1080 cells treated 24 hours, then co-culture with THP1-Dual cells 24 hours; versus DMSO
Experimental: HT1080 fibrosarcoma cells were treated with either control (DMSO) or various doses of Erastin, piperazine erastin (PE), or imidazole ketoerastin (IKE) for 24 hours prior to co-culture with THP1-Dual cells for an additional 24 hours. Erastin was purchased from Selleckchem (Houston, Tex.) and dissolved in DMSO. Subsequently, the THP1 supernatants were assessed for nuclear factor kappa-light-chain-enhancer of activated B cells (NFKB) or interferon regulatory factor (IRF) reporter activity.
HT1080 cells were acquired from ATCC and THP1-Dual cells were acquired from InvivoGen (San Diego, Calif.). THP1-Dual cells are human monocyte cells that induce reporter proteins upon activation of either NFKB or IRF pathways. Both cell types were cultured in 96-well plates for the duration of the assay. HT1080 cells were cultured in DMEM with 10% FBS, and THP1-Dual cells were cultured in RPMI with 10% FBS. 7,500 HT1080 cells were plated 24 hours prior to dosing with Erastin, PE, or IKE, with a final DMSO concentration of 0.5%. 24 hours post-treatment, THP1-Dual cells (25,000 cells/well) were added to the HT1080 cells. 24 hours later, 30 μl of supernatant was mixed with either 200 μl QuantiBlue (InvivoGen, San Diego, Calif.) (for NFKB reporter activity) or 50 μl QuantiLuc (for IRF reporter activity) and absorbance or luminescence was recorded on a Molecular Devices plate reader.
HT1080 fibrosarcoma cells were treated with various doses of Erastin (e.g. […], 0.16, 0.31, 0.63, 1.25, 2.5, 5, 10 or 20 μM) alone or in combination with a ferroptosis inhibitor (1 μM Ferrostatin-1, 1 μM Liproxstatin-1, 100 μM Trolox, 25 μM β-Mercaptoethanol or 100 μM Deferoxamine) for 24 hours prior to co-culture with THP1-Dual cells for an additional 24 hours. Ferrostatin-1 and Liproxstatin-1 were purchased from Selleckchem (Houston, Tex.) and dissolved in DMSO. Trolox was purchased from Cayman Chemical Company Inc and resuspended in DMSO. […] Subsequently, the THP1 supernatant was assessed for NFKB activity. […]

NFKB [2] = experiment: NFKB reporter activity in THP1-Dual monocytes co-cultured with treated Caki-1 cells; type: cell-based, human; settings: for NFKB signaling/activity in THP1 monocytes: Caki-1 cells treated 24 hours, then co-culture with THP1-Dual cells 24 hours, versus DMSO
Experimental: (§1) Caki-1 renal cell carcinoma cells were treated with either control (DMSO) or various doses of Erastin, for 24 hours prior to co-culture with THP1-Dual cells for an additional 24 hours. Erastin was purchased from Selleckchem (Houston, Tex.) and dissolved in DMSO. Subsequently, the THP1 supernatants were assessed for NFKB or IRF reporter activity.
(§2) Caki-1 cells were acquired from ATCC and THP1-Dual cells acquired from InvivoGen (San Diego, Calif.). Both cell types were cultured in 96-well plates for the duration of the assay. 7,500 Caki-1 cells were plated 24 hours prior to dosing with Erastin, with a final DMSO concentration of 0.5%. 24 hours post-treatment, THP1-Dual cells (25,000 cells/well) were added to the Caki-1 cells. 24 hours later, 30 μl of supernatant was mixed with either 200 μl QuantiBlue (InvivoGen) or 50 μl QuantiLuc and absorbance or luminescence was recorded on a Molecular Devices plate reader.
as §1, with “RSL3,” for “Erastin,”, “RSL3” for “Erastin”, “Selleckchem” for “Selleckchem (Houston, Tex.)”
as §2, with “RSL3,” for “Erastin,”, “(InvivoGen, San Diego, Calif.)” for “(InvivoGen)”
Caki-1 renal carcinoma cells were treated with either control (DMSO) or various doses (e.g. 0.002, 0.005, 0.014, 0.041, 0.123, 0.370, 1.111, 3.333 and 10 μM) of a GPX4 inhibitor (RSL3 or ML162) in the presence or absence of 1 μM Ferrostatin for 24 hours prior to co-culture with THP1-Dual cells for an additional 24 hours. Subsequently, the THP1 supernatant was assessed for NFKB reporter activity. Caki-1 cells were acquired from ATCC and THP1-Dual cells acquired from InvivoGen (San Diego, Calif.). Both cell types were cultured in 96-well plates for the duration of the assay.

NFKB [3] = experiment: NFKB reporter activity in THP1-Dual monocytes co-cultured with treated PANC1 cells; type: cell-based, human; settings: PANC1 cells treated 24 hours, then co-culture with THP1-Dual cells 24 hours; versus DMSO
Experimental: as §1, with “PANC1 pancreatic cancer” for “Caki-1 renal cell carcinoma”
as §2, with “PANC1 cells were” for “Caki-1 cells were”, “THP1-Dual cells were acquired from” for “THP1-Dual cells acquired from”, “assay. 7,500 PANC-1 cells were” for “assay. 7,500 Caki-1 cells were”, “to the PANC-1 cells. 24” for “to the Caki-1 cells. 24”, “μl QuantiBlue (InvivoGen, San Diego, Calif.) or 50” for “μl QuantiBlue (InvivoGen) or 50”

[4] = system: HT1080 fibrosarcoma cells; experiment: Viability of HT1080 fibrosarcoma cells after treatment; type: cell-based; settings: various doses, 24 hours treatment
[5] = system: PANC1 pancreatic cancer cells; experiment: Viability of PANC1 pancreatic cancer cells after treatment; type: cell-based; settings: various doses, 24 hours treatment
[6] = system: cells overexpressing oncogenic HRAS; settings: engineered human fibroblast cell lines; Dolma et al., 2003; cited from earlier work
[7] = system: Caki-1 renal cell carcinoma cells; experiment: Viability of Caki-1 renal cell carcinoma cells after treatment; type: cell-based; settings: for viability of Caki-1 cells: various doses, 24 hours treatment
Experimental: Caki-1 renal carcinoma cells were treated with either control (DMSO) or various doses (e.g. 0.002, 0.005, 0.014, 0.041, 0.123, 0.370, 1.111, 3.333 and 10 μM) of a GPX4 inhibitor (RSL3 or ML162) in the presence or absence of 1 μM Ferrostatin for 24 hours prior to co-culture with THP1-Dual cells for an additional 24 hours. […] Caki-1 cells were acquired from ATCC and THP1-Dual cells acquired from InvivoGen (San Diego, Calif.). Both cell types were cultured in 96-well plates for the duration of the assay.

NFKB [8] = experiment: NFKB reporter activity in THP1-Dual monocytes co-cultured with treated A20 cells; type: cell-based, human; settings: for NFKB signaling/activity in THP1 monocytes: A20 cells treated 24 hours, then co-culture with THP1-Dual cells 24 hours, versus DMSO
Experimental: as §1, with “A20 B-cell leukemia” for “Caki-1 renal cell carcinoma”, “RSL3,” for “Erastin,”, “RSL3” for “Erastin”
as §2, with “A20” for “Caki-1”, “50,000 A20” for “7,500 Caki-1”, “RSL3,” for “Erastin,”, “(InvivoGen, San Diego, Calif.)” for “(InvivoGen)”
A20 lymphoma cells were treated with various doses (e.g. 0.002, 0.005, 0.014, 0.041, 0.123, 0.370, 1.111, 3.333 and 10 μM) of a GPX4 inhibitor (RSL3, ML162 or ML210) in the presence or absence of 1 μM Ferrostatin-1 for 24 hours. ML162 was purchased from Cayman Chemical Company Inc and resuspended in DMSO. ML210 was purchased from Sigma-Aldrich and resuspended in DMSO. A20 lymphoma cells were also treated with DMSO as a negative control. After treatment with DMSO or a GPX4 inhibitor for 24 hours, the A20 lymphoma cells were co-cultured with THP1-Dual cells for an additional 24 hours. Subsequently, the THP1 supernatant was assessed for NFKB reporter activity. A20 cells were acquired from ATCC and THP1-Dual cells were acquired from InvivoGen (San Diego, Calif.). Both cell types were cultured in 96-well plates for the duration of the assay.

A20 lymphoma cells = experiment: Viability of A20 B-cell leukemia / lymphoma cells after treatment; type: cell-based; settings: for viability of A20 cells: various doses, 24 hours treatment

Compound	NFKB signaling/activity in THP1 monocytes (NFKB [1])	NFKB signaling/activity in THP1 monocytes (NFKB [2])	viability of HT1080 cells [4]	viability of Caki-1 cells [7]	NFKB signaling/activity in THP1 monocytes (NFKB [8])	viability of A20 cells (A20 lymphoma cells)	other results
CCOc1ccccc1-n1c(C(C)N2CCN(C(=O)COc3ccc(Cl)cc3)CC2)nc2ccccc2c1=O (stereo not drawn) [Erastin, erastin]	elicited NFKB signaling; also recorded: increased NFKB activity in THP1 cells in a dose dependent manner	elicited NFKB signaling	negatively affected the viability; also recorded: decreased viability of the cells in a dose dependent manner	negatively affected the viability	–	–	NFKB signaling in THP1 monocytes (NFKB [3]): elicited NFKB signaling; viability of PANC1 cells [5]: negatively affected the viability; lethality in cells overexpressing oncogenic HRAS [6]: induce preferential lethality
CCOC(=O)c1ccc(NC2CCCCC2)c(N)c1 [Ferrostatin-1]	–	–	–	–	–	–	effect on GPX4 inhibitor-increased NFKB activity in THP1 cells (NFKB [8]; A20 cells, 1 μM Ferrostatin-1 together with RSL3, ML162 or ML210, then THP1-Dual co-culture 24 hours): attenuated; effect on GPX4 inhibitor-increased NFKB activity in THP1 cells (NFKB [2]; Caki-1 cells, 1 μM Ferrostatin-1 together with RSL3 or ML162, then THP1-Dual co-culture 24 hours): attenuated; effect on GPX4 inhibitor-decreased viability of A20 lymphoma cells (A20 lymphoma cells; 1 μM Ferrostatin-1 together with RSL3, ML162 or ML210, 24 hours): attenuated; effect on GPX4 inhibitor-decreased viability of Caki-1 renal carcinoma cells ([7]; 1 μM Ferrostatin-1 together with RSL3 or ML162, 24 hours): attenuated
CC(C)Oc1ccc(C(=O)Cn2ccnc2)cc1-n1c(CN2CCN(C(=O)COc3ccc(Cl)cc3)CC2)nc2ccccc2c1=O [IKE, imidazole ketoerastin]	elicited NFKB signaling	–	negatively affected the viability	–	–	–	–
COc1ccc(N(C(=O)CCl)C(C(=O)NCCc2ccccc2)c2cccs2)cc1Cl (stereo not drawn) [ML162]	–	increased NFKB activity in THP1 cells in a dose dependent manner	–	decreased viability of the cells in a dose dependent manner	increased NFKB activity in THP1 cells in a dose dependent manner	decreased viability of the cells in a dose dependent manner	–
Cc1onc(C(=O)N2CCN(C(c3ccc(Cl)cc3)c3ccc(Cl)cc3)CC2)c1[N+](=O)[O-] [ML210]	–	–	–	–	increased NFKB activity in THP1 cells in a dose dependent manner	decreased viability of the cells in a dose dependent manner	–
CC(C)Oc1ccc(CN2CCNCC2)cc1-n1c(CN2CCN(C(=O)COc3ccc(Cl)cc3)CC2)nc2ccccc2c1=O [PE, piperazine erastin]	elicited NFKB signaling	–	negatively affected the viability	–	–	–	–
